Results on 13 molecules are retold here after ChEMBL document CHEMBL5380843 (J Med Chem, 2023).

Each structure is given as a SMILES string. pEC50, pIC50: −log10 of the molar value.

Usually pIC50 stands for the negative decadic logarithm of the IC50, by convention in mol/L. As a reminder, the pEC50 is the negative decadic logarithm of the EC50, by convention in mol/L. Broadly, the CC50 is the concentration at which the toxic effect on the cells reaches its halfway point.

Data set [1] has as its target Cytochrome P450 2C19 (Homo sapiens, UniProt P33261). The experiment in a line: Inhibition of CYP2C19 in human liver microsomes using S-mephenytoin as substrate incubated for 15 to 45 mins in presence of NADPH. The data set is classed as ADME, Microsome. Background: Liver microsomes are a subcellular fraction often used to study metabolism.
Data set [2] deals with Human immunodeficiency virus type 1 reverse transcriptase (Human immunodeficiency virus 1, UniProt Q72547). Nature of the data set: Inhibition of recombinant wild type HIV-1 reverse transcriptase using DNA/RNA as substrate incubated for 40 mins by Pico-green dye based spectrofluorometric analysis.
In data set [3] the test system is Human immunodeficiency virus 1. Nature of the data set: Antiviral activity against wild type HIV-1 IIIB harboring reverse transcriptase K103N mutant infected in human MT4 cells assessed as protection against virus-induced cytopathic effect incubated for 5 days by MTT assay. The settings on record: Human immunodeficiency virus 1, IIIB, MT4, 120 h. The data set is classed as functional, organism-based. (Cytopathic effects are the visible damage that an infection or toxin causes in cultured cells.)

For data set [4], the system named is Human immunodeficiency virus 1. The experiment in a line: Antiviral activity against wild type HIV-1 IIIB harboring reverse transcriptase E138K mutant infected in human MT4 cells assessed as protection against virus-induced cytopathic effect incubated for 5 days by MTT assay. The settings on record: Human immunodeficiency virus 1, IIIB, MT4, 120 h. The data set is classed as functional, organism-based.

Data set [5] relates to Human immunodeficiency virus 1. Nature of the data set: Antiviral activity against wild type HIV-1 IIIB harboring reverse transcriptase Y181C mutant infected in human MT4 cells assessed as protection against virus-induced cytopathic effect incubated for 5 days by MTT assay. The data set is classed as functional, organism-based. To be noted: Human immunodeficiency virus 1, IIIB, MT4, 120 h.

Data set [6] is described as follows: Resistant factor, ratio of EC50 for antiviral activity against HIV-1 IIIB harboring reverse transcriptase Y188L mutant to EC50 for antiviral activity against wild type HIV-1 IIIB. The data set is classed as functional.
Data set [7] can be described thus: Cytotoxicity against human MT4 cells assessed as reduction in cell viability incubated for 5 days by MTT assay. The data set is classed as toxicity, cell-based. To be noted: time 5 day. In general terms: Tetrazolium assays rely on reduction of a dye to a coloured formazan, in cell work by metabolically active cells.
Data set [8] has as its system Human immunodeficiency virus 1. The experiment in a line: Antiviral activity against wild type HIV-1 IIIB harboring reverse transcriptase […] mutant infected in human MT4 cells assessed as protection against virus-induced cytopathic effect incubated for 5 days by MTT assay. The data set is classed as functional, organism-based. The settings on record: Human immunodeficiency virus 1, IIIB, MT4, 120 h.

A short description of data set [9]: Selectivity index, ratio of CC50 for cytotoxicity against human MT4 cells to EC50 for antiviral activity against wild type HIV-1 IIIB infected in human MT4 cells. The data set is classed as toxicity, cell-based. To be noted: read-out: Ratio CC50/EC50.
For data set [10], the system named is Human immunodeficiency virus 1. Nature of the data set: Antiviral activity against wild type HIV-1 IIIB harboring reverse transcriptase Y188L mutant infected in human MT4 cells assessed as protection against virus-induced cytopathic effect incubated for 5 days by MTT assay. The data set is classed as functional, organism-based. To be noted: Human immunodeficiency virus 1, IIIB, MT4, 120 h.

Data set [11] can be described thus: Resistant factor, ratio of EC50 for antiviral activity against HIV-1 IIIB harboring reverse transcriptase E138K mutant to EC50 for antiviral activity against wild type HIV-1 IIIB. The data set is classed as functional.
The nature of data set [12]: Resistant factor, ratio of EC50 for antiviral activity against HIV-1 IIIB harboring reverse transcriptase […] mutant to EC50 for antiviral activity against wild type HIV-1 IIIB. The data set is classed as functional.
Data set [13] concerns Human immunodeficiency virus 1. Nature of the data set: Antiviral activity against wild type HIV-1 IIIB infected in human MT4 cells assessed as protection against virus-induced cytopathic effect incubated for 5 days by MTT assay. The data set is classed as functional, organism-based. The settings on record: Human immunodeficiency virus 1, IIIB, MT4, 120 h.
Data set [14] in a line: Resistant factor, ratio of EC50 for antiviral activity against HIV-1 IIIB harboring reverse transcriptase Y181C mutant to EC50 for antiviral activity against wild type HIV-1 IIIB. The data set is classed as functional.
Data set [15] can be described thus: Resistant factor, ratio of EC50 for antiviral activity against HIV-1 IIIB harboring reverse transcriptase K103N mutant to EC50 for antiviral activity against wild type HIV-1 IIIB. The data set is classed as functional.

Sequence of Cytochrome P450 2C19 (P33261 whole entry): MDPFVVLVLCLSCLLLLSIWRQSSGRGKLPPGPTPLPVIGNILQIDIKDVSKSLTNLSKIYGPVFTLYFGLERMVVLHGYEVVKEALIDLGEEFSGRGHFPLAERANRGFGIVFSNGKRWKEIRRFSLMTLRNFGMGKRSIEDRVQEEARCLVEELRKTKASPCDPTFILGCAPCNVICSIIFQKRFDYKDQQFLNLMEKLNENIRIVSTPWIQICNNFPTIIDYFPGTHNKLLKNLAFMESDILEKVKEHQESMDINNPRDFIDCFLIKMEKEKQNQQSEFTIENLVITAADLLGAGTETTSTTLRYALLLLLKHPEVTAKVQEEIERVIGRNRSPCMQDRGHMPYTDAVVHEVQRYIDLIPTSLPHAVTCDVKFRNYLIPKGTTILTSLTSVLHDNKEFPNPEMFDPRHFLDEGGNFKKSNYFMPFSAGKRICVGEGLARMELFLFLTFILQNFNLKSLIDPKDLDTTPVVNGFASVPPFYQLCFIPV

As to `C=C(C)[C@@H]1CCC2=CC(=O)C[C@@H](C)[C@]2(C)C1` [NOOTKATONE], the pIC50 in [1] was 5.80.
`Cc1cc(-c2ccc(C#N)cc2)cc(Cl)c1Oc1nc(Nc2ccc(C#N)cc2)ncc1C(N)=O`: in data set [2], the pIC50 was 7.18. Further, the pEC50 in data set [3] was 7.51; in [4], 8.30; in data set [5] it was 7.46; in data set [8] it was 7.31; in data set [10], 7.03; in [13], 7.48. Moreover, the “Ratio EC50” value in data set [6] is 2.8; in data set [11], 0.2; in data set [12] it was 1.5; in data set [14], 1.1; in data set [15], 0.9. In addition, the CC50 at 120 h in [7] was above 41600 nM. Besides, in data set [9], the selectivity ratio was above 1270.
Consider `Cc1cc(-c2ccc(C#N)cc2)cc(C)c1Oc1nc(Nc2ccc(C#N)cc2)ncc1C(=O)NC1CC1`, for which the pIC50 in data set [2] is 6.95. Moreover, the negative-log EC50 (pEC50) in data set [3] was 7.49; in data set [4] it was 7.51; in data set [5], 6.80; in [8], 7.29; in data set [10] it was 6.68; in [13], 7.96. Further, the “Ratio EC50” value is 19 in [6]; 2.8 in data set [11]; 4.6 in data set [12]; 14 in data set [14]; 2.9 in [15]. Moreover, the CC50 at 120 h in data set [7] is 116000 nM. Also, the selectivity ratio in data set [9] was 10600.
With `Cc1cc(-c2ccc(C#N)cc2)cc(C)c1Oc1nc(Nc2ccc(C#N)cc2)ncc1C(=O)NCCO`, the pIC50 in data set [2] was 7.26. Besides, the pEC50 in [3] was 8.22; in data set [4], 8.22; in [5] it was 7.54; in [8], 7.89; in data set [10], 7.36; in data set [13] it was 8.52. For the same molecule, the “Ratio EC50” value in data set [6] came out at 13; in data set [11] it was 1.8; in [12] it was 3.9; in [14], 8.8; in [15], 1.8. The CC50 at 120 h in data set [7] is above 39600 nM. Besides, the selectivity ratio in data set [9] is above 11900.
Consider `N#Cc1ccc(Nc2ncc(C(N)=O)c(Oc3ccc(-c4ccc(C#N)cc4)cc3F)n2)cc1`, for which the pIC50 in data set [2] was 7.60. Moreover, the pEC50 in [3] is 4.20; in data set [4], 5.79; in [5], below 3.56; in data set [8], 3.64; in data set [10], below 3.56; in data set [13], 6.79. Further, the “Ratio EC50” value is reported as above 1713 in data set [6]; 9.9 in [11]; 1429 in [12]; above 1713 in data set [14]; 391 in [15]. For the same molecule, the CC50 at 120 h in [7] is above 278000 nM. Further, the selectivity ratio in [9] was above 1720.
On to `C#CCNC(=O)c1cnc(Nc2ccc(C#N)cc2)nc1Oc1c(C)cc(-c2ccc(C#N)cc2)cc1C`, for which the pIC50 in data set [2] was 7.14. Also, the pEC50 was 8.05 in data set [3]; 7.89 in data set [4]; 7.51 in data set [5]; 7.80 in [8]; 7.23 in data set [10]; 8.30 in data set [13]. The “Ratio EC50” value was determined as 11 in [6]; 2.3 in data set [11]; 2.9 in [12]; 5.5 in data set [14]; 1.6 in [15]. The CC50 at 120 h in data set [7] is 145000 nM. The selectivity ratio in data set [9] amounted to 25700.
`CNC(=O)c1cnc(Nc2ccc(C#N)cc2)nc1Oc1c(C)cc(-c2ccc(C#N)cc2)cc1C`: in [2], the pIC50 was 7.25. Also, the pEC50 in [3] is 8.30; in [4], 8.22; in [5], 7.57; in [8], 8.05; in data set [10], 7.47; in [13] it was 8.52. Besides, the “Ratio EC50” value came to 10 in [6]; 1.8 in data set [11]; 2.7 in data set [12]; 8.2 in [14]; 1.5 in [15]. Moreover, the CC50 at 120 h in data set [7] is above 42200 nM. For the same molecule, the selectivity ratio in data set [9] was above 12700.
`Cc1cc(-c2ccc(C#N)cc2)ccc1Oc1nc(Nc2ccc(C#N)cc2)ncc1C(N)=O`: the pIC50 in [2] was 7.72. Moreover, the pEC50 in [3] is 7.03; in [4], 6.94; in data set [5], 5.36; in data set [8], 6.00; in [10] it was 5.15; in [13] it was 7.51. Besides, the “Ratio EC50” value in [6] came to 230; in data set [11] it was 3.7; in data set [12], 32; in data set [14], 140; in data set [15] it was 3. For the same molecule, the CC50 at 120 h in data set [7] is above 280000 nM. Moreover, in data set [9], the selectivity ratio is above 9000.
In the case of `N#Cc1ccc(Nc2ncc(C(N)=O)c(Oc3c(F)cc(-c4ccc(C#N)cc4)cc3F)n2)cc1`, in data set [2], the pIC50 is 7.68. Also, the pEC50 in data set [3] was 6.76; in data set [4] it was 6.80; in data set [5], 4.96; in [8], 5.92; in data set [10] it was 4.45; in [13], 7.52. Moreover, the “Ratio EC50” value was determined as 1178 in [6]; 5.3 in data set [11]; 40 in data set [12]; 362 in data set [14]; 5.8 in [15]. The CC50 at 120 h in [7] is above 53400 nM. For the same molecule, the selectivity ratio in [9] was above 1780.
Turning to `Cc1cc(-c2ccc(C#N)cc2)cc(C)c1Oc1nc(Nc2ccc(C#N)cc2)ncc1C(=O)NC(C)C`, in data set [2], the pIC50 was 6.70. In addition, the pEC50 is 7.09 in [3]; 7.15 in data set [4]; 6.48 in data set [5]; 6.84 in data set [8]; 6.25 in data set [10]; 7.43 in [13]. The “Ratio EC50” value was found to be 15 in [6]; 1.9 in data set [11]; 3.9 in [12]; 9 in [14]; 2.2 in data set [15]. The CC50 at 120 h in data set [7] is 64700 nM. The selectivity ratio in data set [9] amounted to 1750.
Turning to `Cc1cc(-c2ccc(C#N)cc2)cc(C)c1Oc1nc(Nc2ccc(C#N)cc2)ncc1C(=O)NC1CCCCC1`, the pIC50 in [2] is 6.48. Besides, the pEC50 in data set [3] is 5.88; in data set [4] it was 6.09; in data set [5], 5.35; in data set [8] it was 5.77; in data set [10], 5.29; in data set [13] it was 6.76. For the same molecule, the “Ratio EC50” value in [6] was 30; in data set [11], 4.7; in data set [12], 9.7; in [14] it was 26; in data set [15], 7.6. The CC50 at 120 h in data set [7] was above 230000 nM. Also, the selectivity ratio in data set [9] is above 1320.
For `CCNC(=O)c1cnc(Nc2ccc(C#N)cc2)nc1Oc1c(C)cc(-c2ccc(C#N)cc2)cc1C`, in [2], the pIC50 was 6.87. The negative-log EC50 (pEC50) in [3] was 7.89; in data set [4], 7.55; in [5] it was 7.17; in data set [8] it was 7.60; in data set [10] it was 7.02; in [13], 8.22. Besides, the “Ratio EC50” value is 14 in data set [6]; 4.2 in [11]; 3.7 in data set [12]; 10 in data set [14]; 1.9 in data set [15]. Also, the CC50 at 120 h in data set [7] came out at 151000 nM. Besides, the selectivity ratio in data set [9] was determined as 22500.
On to `Cc1cc(-c2ccc(C#N)cc2)cc(C)c1Oc1nc(Nc2ccc(C#N)cc2)ncc1C(=O)NC1CCC1`, for which the pIC50 in data set [2] is 6.49. Moreover, the pEC50 in [3] is 6.51; in [4], 6.77; in data set [5], 5.99; in [8], 6.40; in data set [10] it was 5.88; in [13] it was 7.19. The “Ratio EC50” value in data set [6] came to 20; in data set [11] it was 2.6; in data set [12] it was 6.1; in data set [14] it was 16; in [15], 4.7. Moreover, in [7], the CC50 at 120 h is above 243000 nM. Also, the selectivity ratio in data set [9] is above 3750.
